We go through 38 compounds from patent publication US20250221966A1, “RXFP1 AGONISTS” (BRISTOL-MYERS SQUIBB COMPANY, priority 2021, published 2025).

The assay has as its target T1, human RXFP1 (Homo sapiens, UniProt Q9HBX9).
T1 construct: expressed in transfected cells
T1 sequence (Q9HBX9 1-757): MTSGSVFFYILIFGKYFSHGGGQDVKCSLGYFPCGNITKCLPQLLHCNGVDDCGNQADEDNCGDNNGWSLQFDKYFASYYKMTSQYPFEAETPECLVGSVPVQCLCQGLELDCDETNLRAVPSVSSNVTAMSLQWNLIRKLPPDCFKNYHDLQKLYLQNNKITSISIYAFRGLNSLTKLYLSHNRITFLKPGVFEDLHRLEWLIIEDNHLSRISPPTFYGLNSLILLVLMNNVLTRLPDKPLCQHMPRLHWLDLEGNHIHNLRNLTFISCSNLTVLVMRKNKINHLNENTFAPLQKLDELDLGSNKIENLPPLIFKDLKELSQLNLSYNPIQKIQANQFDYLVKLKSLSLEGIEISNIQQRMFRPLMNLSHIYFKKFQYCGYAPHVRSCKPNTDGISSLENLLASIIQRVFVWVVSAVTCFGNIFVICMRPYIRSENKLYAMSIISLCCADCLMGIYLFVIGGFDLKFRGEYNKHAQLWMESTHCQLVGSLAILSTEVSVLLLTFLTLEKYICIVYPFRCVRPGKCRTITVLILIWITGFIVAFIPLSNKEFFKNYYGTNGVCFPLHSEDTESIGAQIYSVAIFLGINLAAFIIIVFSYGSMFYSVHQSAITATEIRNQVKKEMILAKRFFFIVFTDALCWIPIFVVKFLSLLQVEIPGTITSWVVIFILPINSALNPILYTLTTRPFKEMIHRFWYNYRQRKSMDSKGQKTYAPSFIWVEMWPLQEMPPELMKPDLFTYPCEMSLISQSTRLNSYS
Description: RXFP1 cAMP assay (hRXFP1 HEK293 cAMP assay, HTRF). As to conditions: HEK293 cells stably expressing human RXFP1, 30 min at room temperature, read-out: cAMP hRXFP1 HEK293 Assay EC50. The assay is classed as cell-based. In short, it runs like this: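 In a stable human RXFP1 HEK293 line, compounds acted for 30 min at RT in buffer with 0.5 mM IBMX. HTRF then quantified cellular cAMP.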
The EC50 is the concentration giving half of the maximal effect. `COc1ccc(-c2cccc3c2ccn3CC(C)(C)O)cc1C(=O)N[C@@H]1C2CCC(/C2=C/C2CCCC2)[C@@H]1C(=O)Nc1ccc(F)c(C(F)(F)F)c1` (some centres unmarked) [compound 895]: the concentration giving a half-maximal response (EC50) was determined as 0.2 nM.

Regarding `COc1ccc(-c2cc([C@H](OC(=O)NC3CCC3)C(F)(F)F)ccc2F)cc1C(=O)N[C@@H]1C2CCC(/C2=C/CCC(F)(F)F)[C@@H]1C(=O)Nc1ccc(F)c(C(F)(F)F)c1` (some centres unmarked) [compound 923], the concentration for a half-maximal effect (EC50) amounted to 4.7 nM.

Consider `COc1ccc(C2=NOC3CC(O)(C(F)(F)F)CC23)cc1C(=O)N[C@H]1[C@@H](C(=O)Nc2ccc(F)c(C(F)(F)F)c2)[C@H]2CC[C@@H]1/C2=C\C1CC1` (some centres unmarked) [compound 864], for which the concentration giving a half-maximal response (EC50) stood at 3.8 nM.

`COc1ccc(C2=NOC3CC(C(O)C(F)(F)F)CC23)cc1C(=O)N[C@H]1[C@@H](C(=O)Nc2ccc(F)c(C(F)(F)F)c2)[C@H]2CC[C@@H]1/C2=C\C1CC1` (single isomer, unassigned) [Example 489]: the EC50 was 8.5 nM.

Turning to `COc1cc(F)c(F)cc1C(=O)N[C@@H]1C2CCC(/C2=C/C2=CCOC2)[C@@H]1C(=O)Nc1ccc(F)c(C(F)(F)F)c1` (some centres unmarked) [compound 58], the EC50 worked out at 1100 nM.

Regarding `COc1ccc(-c2cc(CC(=O)O)ccc2F)cc1C(=O)N[C@@H]1C2CCC(/C2=C/c2ccccc2)[C@@H]1C(=O)Nc1ccc(F)c(C(F)(F)F)c1` (some centres unmarked) [compound 187], the EC50 worked out at 19 nM.

As for `COc1ccc(C2=NOC3COCC23)cc1C(=O)N[C@H]1[C@@H](C(=O)NC2(CO)CCCC2)[C@H]2CC[C@@H]1/C2=C\C1CC1` (some centres unmarked) [compound 651], the EC50 amounted to 269 nM.

For `COc1ccc(C2=NO[C@H]3COC[C@@H]23)cc1C(=O)N[C@H]1[C@@H](C(=O)Nc2ccc(F)c(C(F)(F)F)c2)[C@H]2CC[C@@H]1/C2=C\C1CCCC1` [compound 819], the 50% effective concentration (EC50) came out at 2.3 nM.

Take `COc1cc(F)c(F)cc1C(=O)N[C@@H]1C2CCC(/C2=C/c2cccc(C)c2)[C@@H]1C(=O)Nc1ccc(F)c(C(F)(F)F)c1` (some centres unmarked) [compound 24]: the concentration for a half-maximal effect (EC50) stood at 94 nM.

With `COc1ccc(-c2cc(-c3nnn[nH]3)ccc2F)cc1C(=O)N[C@@H]1C2CCC(C2=C(C)C)[C@@H]1C(=O)Nc1ccc(F)c(C(F)(F)F)c1` (some centres unmarked) [Example 108], the EC50 came out at 330 nM.

Consider `COc1ccc(-c2cc(C(OC(=O)NCC(F)(F)F)C(F)(F)F)ccc2F)cc1C(=O)N[C@@H]1C2CCC(/C2=C/C2CC2)[C@@H]1C(=O)Nc1ccc(F)c(C(F)(F)F)c1` (some centres unmarked) [compound 220], for which the EC50 was 8 nM.

Consider `COc1ccc(C2=NOC3CC(C(N)=O)CC23)cc1C(=O)N[C@H]1[C@@H](C(=O)Nc2ccc(F)c(C(F)(F)F)c2)[C@H]2CC[C@@H]1/C2=C\C1CC1` (single isomer, unassigned) [compound 587], for which the concentration for a half-maximal effect (EC50) was 80.8 nM.

Consider `COc1ccc(C2=NOC3COCC23)cc1C(=O)N[C@H]1[C@@H](C(=O)NC2(C#N)CCCC2)[C@H]2CC[C@@H]1/C2=C\C1CC1` (some centres unmarked) [compound 476], for which the EC50 was found to be 6.1 nM.

For the compound `COc1ccc(-c2cc(C3=NOC(C(=O)O)C3)ccc2F)cc1C(=O)N[C@H]1[C@@H](C(=O)Nc2ccc(F)c(C(F)(F)F)c2)[C@H]2CC[C@@H]1/C2=C\C1CCCC1` (some centres unmarked) [compound 946], the EC50 came to 0.9 nM.

Regarding `COc1ccc(C2=NOC3CC(CO)CC23)cc1C(=O)N[C@H]1[C@@H](C(=O)Nc2ccc(F)c(C(F)(F)F)c2)[C@H]2CC[C@@H]1/C2=C\C(C)C` (some centres unmarked) [compound 454], the half-maximal effective concentration (EC50) is 1.9 nM.

As for `COc1cc(F)c(F)cc1C(=O)N[C@@H]1C2CCC(/C2=C2\CCc3ccccc32)[C@@H]1C(=O)Nc1ccc(F)c(C(F)(F)F)c1` (some centres unmarked) [compound 72], the EC50 amounted to 250 nM.

For `COc1ccc(C2=NOC3CC(C)(CO)CC23)cc1C(=O)N[C@H]1[C@@H](C(=O)N[C@H](C)C2(C)CC2)[C@H]2CC[C@@H]1/C2=C\c1csc(C(F)(F)F)n1` (some centres unmarked) [compound 915], the EC50 is 4 nM.

Regarding `COc1ccc(C2=NOC3CN(C(=O)OC(C)(C)C)CC23)cc1C(=O)N[C@@H]1C2CCC(/C2=C/C2CC2)[C@@H]1C(=O)Nc1ccc(F)c(C(F)(F)F)c1` (some centres unmarked) [compound 435], the EC50 is 49 nM.

Take `COc1ccc(C2=NOC3C4CC(C(O)C4O)C23)cc1C(=O)N[C@H]1[C@@H](C(=O)Nc2ccc(F)c(C(F)(F)F)c2)[C@H]2CC[C@@H]1/C2=C\C1CC1` (single isomer, unassigned) [Example 448]: the concentration for a half-maximal effect (EC50) was determined as 1.2 nM.

Turning to `COc1c(F)cc(C2=NOC3CC(C(C)O)CC23)cc1C(=O)N[C@H]1[C@@H](C(=O)Nc2ccc(F)c(C(F)(F)F)c2)[C@H]2CC[C@@H]1/C2=C\C1CC1` (some centres unmarked) [compound 850], the EC50 came out at 2.7 nM.

As to `COc1ccc(C2=NOC3CC(C(C)(C)O)CC23)cc1C(=O)N[C@H]1[C@@H](C(=O)Nc2ccc(F)c(C(F)(F)F)c2)[C@H]2CC[C@@H]1/C2=C\C1CC1` (single isomer, unassigned) [compound 462], the EC50 is 3 nM.

For the compound `O=C(N[C@H]1[C@@H](C(=O)Nc2ccc(F)c(C(F)(F)F)c2)[C@H]2CC[C@@H]1/C2=C\C1CC1)c1cccc(C2=NOC3CC(O)CC23)c1` (some centres unmarked) [compound 628], the EC50 worked out at 177 nM.

Regarding `O=C(N[C@H]1C(C(=O)Nc2ccc(F)c(C(F)(F)F)c2)[C@H]2CC[C@@H]1/C2=C\C1CC1)c1cc(C2=NOC3COCC23)ccc1OCC(F)F` (some centres unmarked) [compound 785], the EC50 came out at 4 nM.

Regarding `COc1ccc(-c2cc(C3=NOC4COCC34)ccc2F)cc1C(=O)N[C@H]1[C@@H](C(=O)Nc2ccc(F)c(C(F)(F)F)c2)[C@H]2CC[C@@H]1/C2=C\C1CC1` (some centres unmarked) [compound 911], the EC50 was determined as 7.6 nM.

Turning to `COc1ccc(C2=NO[C@H]3CC(CO)C[C@@H]23)cc1C(=O)N[C@H]1[C@@H](C(=O)Nc2ccc(F)c(C(F)(F)F)c2)[C@H]2CC[C@@H]1/C2=C\CCF` (some centres unmarked) [compound 814], the EC50 stood at 1.2 nM.

For the compound `COc1ccc(C2=NOC3COCC23)cc1C(=O)N[C@@H]1C2CCC(/C2=C/C2CC2)[C@@H]1C(=O)Nc1ccc(F)c(OC(F)(F)F)c1` (some centres unmarked) [compound 973], the EC50 was determined as 5.8 nM.

On to `C=C/C=C1\C2CCC1[C@H](C(=O)Nc1ccc(F)c(C(F)(F)F)c1)[C@@H]2NC(=O)c1cc(-c2cc(C(=O)O)ccc2F)ccc1OC` (some centres unmarked) [compound 158], for which the EC50 is 100 nM.

For `COC(=O)c1cnn2cc(-c3ccc(OC)c(C(=O)N[C@@H]4C5CCC(/C5=C/C(F)(F)F)[C@@H]4C(=O)Nc4ccc(F)c(C(F)(F)F)c4)c3)ccc12` (some centres unmarked) [compound 313], the concentration giving a half-maximal response (EC50) came out at 90 nM.

In the case of `COc1ccc(-c2cc(C(OC(=O)NCCC(F)(F)F)C(F)(F)F)ccc2F)cc1C(=O)N[C@@H]1C2CCC(/C2=C/C2CC2)[C@@H]1C(=O)Nc1ccc(F)c(C(F)(F)F)c1` (some centres unmarked) [compound 213], the concentration giving a half-maximal response (EC50) came to 2 nM.

Turning to `CNC(=O)C(OC(=O)Nc1ccccc1)c1ccc(F)c(-c2ccc(OC)c(C(=O)N[C@@H]3C4CCC(/C4=C/C4CC4)[C@@H]3C(=O)Nc3ccc(F)c(C(F)(F)F)c3)c2)c1` (some centres unmarked) [compound 237], the EC50 is 2 nM.

`COc1cc(F)c(C2=NOC3COCC23)cc1C(=O)N[C@H]1[C@@H](C(=O)Nc2ccc(F)c(C(F)(F)F)c2)[C@H]2CC[C@@H]1/C2=C\C1CC1` (single isomer, unassigned) [compound 463]: the EC50 amounted to 3.1 nM.

In the case of `COc1ccc(-c2cc(C(C)CC(=O)O)ccc2F)cc1C(=O)N[C@H]1[C@@H](C(=O)Nc2ccc(F)c(C(F)(F)F)c2)[C@H]2CC[C@@H]1/C2=C\C1CC1` (some centres unmarked) [compound 888], the EC50 was 2.7 nM.

With `COc1ccc(C2=NOC3CC(C(O)C(F)(F)F)CC23)cc1C(=O)N[C@H]1[C@@H](C(=O)Nc2ccc(F)c(C(F)(F)F)c2)[C@H]2CC[C@@H]1/C2=C\C1CC1` (some centres unmarked) [compound 856], the EC50 is 4.7 nM.

Consider `COc1ccc(-c2cc(C3OC(=O)N(c4ccccc4)C3=O)ccc2F)cc1C(=O)N[C@@H]1C2CCC(/C2=C/C2CC2)[C@@H]1C(=O)Nc1ccc(F)c(C(F)(F)F)c1` (some centres unmarked) [compound 255], for which the EC50 turned out to be 3 nM.

Regarding `COc1ccc(-c2ccc3c(C(=O)OCc4ccccc4)cnn3c2)cc1C(=O)N[C@@H]1C2CCC(/C2=C/C(F)(F)F)[C@@H]1C(=O)Nc1ccc(F)c(C(F)(F)F)c1` (some centres unmarked) [compound 316], the EC50 was found to be 81 nM.

On to `COc1ccc(C2=NOC3CC(O)(C(F)(F)F)CC23)cc1C(=O)N[C@H]1[C@@H](C(=O)N[C@H](C)C2(C)CC2)[C@H]2CC[C@@H]1/C2=C\C1CC1` (some centres unmarked) [compound 859], for which the EC50 turned out to be 1.8 nM.

Take `COc1ccc(C2=NO[C@@H]3C[C@@H](CO)CN23)cc1C(=O)N[C@H]1[C@@H](C(=O)Nc2ccc(F)c(C(F)(F)F)c2)[C@H]2CC[C@@H]1/C2=C\C1CC1` [compound 849]: the EC50 stood at 2.7 nM.

Regarding `COc1ccc(C23COC(C(=O)O)(C2)C3)cc1C(=O)N[C@H]1[C@@H](C(=O)Nc2ccc(F)c(C(F)(F)F)c2)[C@H]2CC[C@@H]1/C2=C\C(F)(F)F` [Example 724, 4-(3-(((1R,2R,3S,4R,Z)-3-((4-fluoro-3-(trifluoromethyl)phenyl)carbamoyl)-7-(2,2,2-trifluoroethylidene)bicyclo[2.2.1]heptan-2-yl)carbamoyl)-4-methoxyphenyl)-2-oxabicyclo[2.1.1]hexane-1-carboxylic acid], the EC50 turned out to be 5000 nM.
